According to ChEMBL document CHEMBL4251732, “Discovery of Novel Indoleamine 2,3-Dioxygenase 1 (IDO1) and Histone Deacetylase (HDAC) Dual Inhibitors” (ACS Med Chem Lett, 2018):
Activity calls are given as the source filed them. The calls are words filed in the database; no cut-off is given here.

Assays:
Histone deacetylase 1 = Histone deacetylase 1 (Homo sapiens, UniProt Q13547); experiment: Inhibition of recombinant human full length HDAC1 using fluorogenic substrate 3 after 30 mins by fluorescence assay
Chain of Histone deacetylase 1 (Q13547 whole entry, the tested form may be a part): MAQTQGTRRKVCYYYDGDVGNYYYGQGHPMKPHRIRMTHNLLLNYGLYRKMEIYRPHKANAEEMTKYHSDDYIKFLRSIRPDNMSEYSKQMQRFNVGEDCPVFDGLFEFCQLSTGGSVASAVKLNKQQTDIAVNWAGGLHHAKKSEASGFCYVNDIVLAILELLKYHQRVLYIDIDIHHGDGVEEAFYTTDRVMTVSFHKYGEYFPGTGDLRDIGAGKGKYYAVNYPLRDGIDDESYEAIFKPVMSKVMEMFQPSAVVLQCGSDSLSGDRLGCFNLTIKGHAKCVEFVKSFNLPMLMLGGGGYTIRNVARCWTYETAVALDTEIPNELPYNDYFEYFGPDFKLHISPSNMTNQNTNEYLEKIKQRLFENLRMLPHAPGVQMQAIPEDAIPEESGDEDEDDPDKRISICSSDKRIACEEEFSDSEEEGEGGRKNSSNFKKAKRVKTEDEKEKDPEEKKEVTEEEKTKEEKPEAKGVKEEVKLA

[1] = target: T1, Indoleamine 2,3-dioxygenase 1 (Homo sapiens, UniProt P14902); experiment: Inhibition of recombinant human GST-tagged IDO1 (1 to 404 residues) using D-Tryptophan as substrate
T1 sequence (P14902 whole entry, the tested form may be a part): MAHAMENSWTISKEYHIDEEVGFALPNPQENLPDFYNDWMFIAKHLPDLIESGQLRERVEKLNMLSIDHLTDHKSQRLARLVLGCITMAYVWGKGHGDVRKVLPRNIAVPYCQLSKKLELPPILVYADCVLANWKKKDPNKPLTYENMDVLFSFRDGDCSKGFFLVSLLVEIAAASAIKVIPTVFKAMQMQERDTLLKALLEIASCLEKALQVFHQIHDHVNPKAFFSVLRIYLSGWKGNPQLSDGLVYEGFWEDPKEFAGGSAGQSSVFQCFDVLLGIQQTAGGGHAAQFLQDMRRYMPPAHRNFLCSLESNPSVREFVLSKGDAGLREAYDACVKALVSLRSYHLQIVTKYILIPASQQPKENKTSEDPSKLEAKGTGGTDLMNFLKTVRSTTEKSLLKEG

[2] = system: Lewis lung carcinoma cell line; experiment: Antiproliferative activity against mouse LLC cells after 48 hrs by CCK-8 assay; assay type: functional, cell-based
CT26 = experiment: Antiproliferative activity against mouse CT26 cells after 48 hrs by CCK-8 assay; assay type: functional, cell-based; conditions: CT26, 48 h
A549 = experiment: Antiproliferative activity against human A549 cells after 48 hrs by CCK-8 assay; assay type: functional, cell-based; conditions: A549, 48 h
HCT-116 [3] = experiment: Antiproliferative activity against human HCT116 cells after 48 hrs by CCK-8 assay; assay type: functional, cell-based; conditions: HCT-116, 48 h
HT-29 = experiment: Antiproliferative activity against human HT-29 cells after 48 hrs by CCK-8 assay; assay type: functional, cell-based; conditions: HT-29, 48 h
HCT-116 [4] = experiment: Induction of apoptosis in human HCT116 cells after 48 hrs by Annexin V-FITC/propidium iodide staining based flow cytometry; assay type: functional, cell-based
HCT-116 [5] = experiment: Induction of apoptosis in human HCT116 cells at 5 uM after 48 hrs by Annexin V-FITC/propidium iodide staining based flow cytometry relative to control; assay type: functional
HCT-116 [6] = experiment: Induction of apoptosis in human HCT116 cells at 10 uM after 48 hrs by Annexin V-FITC/propidium iodide staining based flow cytometry relative to control; assay type: functional
HCT-116 [7] = experiment: Induction of apoptosis in human HCT116 cells at 20 uM after 48 hrs by Annexin V-FITC/propidium iodide staining based flow cytometry relative to control; assay type: functional
HCT-116 [8] = experiment: Cell cycle arrest in human HCT116 cells assessed as accumulation at G2/M phase up to 48 hrs by propidium iodide staining based flow cytometry (reference value: 27.2%); assay type: functional
HCT-116 [9] = experiment: Cell cycle arrest in human HCT116 cells assessed as accumulation at G2/M phase by propidium iodide staining based flow cytometry; assay type: functional; conditions: TDE = time-dependent effect
[10] = target: T1, Indoleamine 2,3-dioxygenase 1; experiment: Inhibition of IDO1 in IFN-gamma-stimulated human HeLa cells assessed as decrease in kynurenine levels after 48 hrs; assay type: cell-based
HeLa = experiment: Cytotoxicity against human HeLa cells assessed as inhibition of cell growth after 48 hrs by CCK-8 assay; assay type: cell-based
[11] = Ratio of LC50 for human HeLa cells to EC50 for IDO1 in IFN-gamma-stimulated human HeLa cells; assay type: toxicity
Histone deacetylase 2 = Histone deacetylase 2 (Homo sapiens, UniProt Q92769); experiment: Inhibition of HDAC2 (unknown origin) using substrate 3 after 30 mins by fluorescence assay
Chain of Histone deacetylase 2 (Q92769 whole entry): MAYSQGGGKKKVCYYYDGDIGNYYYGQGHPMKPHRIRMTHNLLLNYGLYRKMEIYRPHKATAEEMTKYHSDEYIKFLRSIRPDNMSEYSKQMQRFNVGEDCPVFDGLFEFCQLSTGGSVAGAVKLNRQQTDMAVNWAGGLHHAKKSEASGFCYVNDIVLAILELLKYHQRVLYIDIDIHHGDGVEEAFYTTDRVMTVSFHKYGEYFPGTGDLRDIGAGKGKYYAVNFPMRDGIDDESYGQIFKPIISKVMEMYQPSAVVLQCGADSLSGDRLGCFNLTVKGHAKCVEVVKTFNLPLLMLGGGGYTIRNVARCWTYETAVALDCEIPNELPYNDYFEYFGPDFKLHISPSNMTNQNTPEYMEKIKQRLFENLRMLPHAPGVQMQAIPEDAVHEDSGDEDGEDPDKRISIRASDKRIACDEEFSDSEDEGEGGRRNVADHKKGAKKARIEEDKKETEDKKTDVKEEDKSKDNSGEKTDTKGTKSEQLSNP

Histone deacetylase 3 = Histone deacetylase 3 (Homo sapiens, UniProt O15379); experiment: Inhibition of HDAC3 (unknown origin) using substrate 3 after 30 mins by fluorescence assay
Chain of Histone deacetylase 3 (O15379 whole entry): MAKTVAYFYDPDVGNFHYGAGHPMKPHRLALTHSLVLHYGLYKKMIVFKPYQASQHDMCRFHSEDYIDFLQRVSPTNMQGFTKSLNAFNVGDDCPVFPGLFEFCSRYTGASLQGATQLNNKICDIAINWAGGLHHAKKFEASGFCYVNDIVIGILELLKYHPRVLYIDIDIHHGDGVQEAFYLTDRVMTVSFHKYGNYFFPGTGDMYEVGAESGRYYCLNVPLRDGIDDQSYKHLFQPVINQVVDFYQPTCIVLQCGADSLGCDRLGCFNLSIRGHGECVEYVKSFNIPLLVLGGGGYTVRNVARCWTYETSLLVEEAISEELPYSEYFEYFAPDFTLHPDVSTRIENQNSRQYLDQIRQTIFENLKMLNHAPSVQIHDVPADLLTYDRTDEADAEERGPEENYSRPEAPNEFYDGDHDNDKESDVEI

[12] = target: T2, Protein deacetylase HDAC6 (Homo sapiens, UniProt Q9UBN7); experiment: Inhibition of HDAC6 (unknown origin) using substrate 3 after 30 mins by fluorescence assay
T2 sequence (Q9UBN7 whole entry): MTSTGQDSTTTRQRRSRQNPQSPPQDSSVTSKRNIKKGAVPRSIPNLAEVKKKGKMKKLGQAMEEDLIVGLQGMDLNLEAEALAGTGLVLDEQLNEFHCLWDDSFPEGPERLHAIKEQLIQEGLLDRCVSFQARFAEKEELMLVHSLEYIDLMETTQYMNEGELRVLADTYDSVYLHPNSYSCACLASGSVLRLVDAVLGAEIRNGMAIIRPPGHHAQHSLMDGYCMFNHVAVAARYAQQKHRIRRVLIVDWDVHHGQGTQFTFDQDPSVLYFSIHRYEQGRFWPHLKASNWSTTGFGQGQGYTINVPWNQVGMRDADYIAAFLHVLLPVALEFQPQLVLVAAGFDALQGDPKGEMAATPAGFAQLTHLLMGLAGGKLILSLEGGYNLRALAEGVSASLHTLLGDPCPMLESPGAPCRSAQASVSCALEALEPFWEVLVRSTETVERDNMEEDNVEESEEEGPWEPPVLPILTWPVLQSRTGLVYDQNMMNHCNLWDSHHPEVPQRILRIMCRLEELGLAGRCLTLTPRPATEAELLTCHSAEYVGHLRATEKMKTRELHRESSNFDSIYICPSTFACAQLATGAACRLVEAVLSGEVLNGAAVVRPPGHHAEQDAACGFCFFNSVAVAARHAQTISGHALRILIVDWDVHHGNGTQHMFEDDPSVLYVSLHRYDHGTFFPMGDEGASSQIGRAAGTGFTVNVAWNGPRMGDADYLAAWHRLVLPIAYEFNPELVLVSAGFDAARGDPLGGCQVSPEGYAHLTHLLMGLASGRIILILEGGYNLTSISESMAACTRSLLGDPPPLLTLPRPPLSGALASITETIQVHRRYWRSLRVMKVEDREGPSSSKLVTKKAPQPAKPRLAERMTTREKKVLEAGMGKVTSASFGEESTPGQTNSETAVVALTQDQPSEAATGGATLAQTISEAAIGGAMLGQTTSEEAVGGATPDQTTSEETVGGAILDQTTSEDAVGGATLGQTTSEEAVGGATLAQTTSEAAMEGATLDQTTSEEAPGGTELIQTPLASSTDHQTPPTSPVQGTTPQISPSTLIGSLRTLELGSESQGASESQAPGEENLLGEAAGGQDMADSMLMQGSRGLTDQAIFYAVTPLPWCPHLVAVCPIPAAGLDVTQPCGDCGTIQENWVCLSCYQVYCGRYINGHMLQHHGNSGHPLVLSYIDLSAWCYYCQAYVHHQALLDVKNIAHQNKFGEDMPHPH

[13] = Half life in mouse liver microsomes at 1 uM by LC-MS/MS analysis; assay type: ADME, microsome
[14] = Apparent clearance in mouse liver microsomes; assay type: ADME, microsome
[15] = Cmax in Sprague-Dawley rat at 100 mg/kg, po administered as single dose via gavage by LC-MS/MS analysis; assay type: ADME, organism-based; set-up: dose 100 mg/kg, route oral; conditions: in vivo
[16] = Cmax in Sprague-Dawley rat at 2 mg/kg, iv administered as single dose by LC-MS/MS analysis; assay type: ADME, organism-based; set-up: dose 2 mg/kg, route intravenous; conditions: in vivo
[17] = Tmax in Sprague-Dawley rat at 100 mg/kg, po administered as single dose via gavage by LC-MS/MS analysis; assay type: ADME, organism-based; conditions: in vivo
[18] = Tmax in Sprague-Dawley rat at 2 mg/kg, iv administered as single dose by LC-MS/MS analysis; assay type: ADME, organism-based; conditions: in vivo
[19] = Half life in Sprague-Dawley rat at 100 mg/kg, po administered as single dose via gavage by LC-MS/MS analysis; assay type: ADME, organism-based; conditions: in vivo
[20] = Half life in Sprague-Dawley rat at 2 mg/kg, iv administered as single dose by LC-MS/MS analysis; assay type: ADME, organism-based; conditions: in vivo
[21] = AUC (0 to infinity) in Sprague-Dawley rat at 100 mg/kg, po administered as single dose via gavage by LC-MS/MS analysis; assay type: ADME, organism-based; set-up: dose 100 mg/kg, time infinity, route oral; conditions: in vivo
[22] = AUC (0 to infinity) in Sprague-Dawley rat at 2 mg/kg, iv administered as single dose by LC-MS/MS analysis; assay type: ADME, organism-based; set-up: dose 2 mg/kg, time infinity, route intravenous; conditions: in vivo
[23] = Oral bioavailability in Sprague-Dawley rat at 100 mg/kg administered as single dose via gavage by LC-MS/MS analysis; assay type: ADME, organism-based; conditions: in vivo
Mus musculus [24] = experiment: In vivo inhibition of IDO1 in wild type C57BL/6 mouse assessed as reduction in kynurenine levels in plasma at 100 mg/kg, po administered via gavage after 3 to 8 hrs by LC-MS/MS analysis; assay type: functional, organism-based
[25] = Stability of the compound in PBS buffer after 24 hrs; assay type: physicochemical
[26] = Solubility of the compound in water; assay type: physicochemical
[27] = system: Lewis lung carcinoma cell line; experiment: Antitumor activity against mouse LLC cells implanted in immunocompetent C57BL/6 mouse assessed as tumor growth inhibition at 100 mg/kg, po bid administered via gavage for 14 consecutive days measured every 4 days relative to control; assay type: functional; conditions: 96 h, read-out: TGI
Mus musculus [28] = experiment: Toxicity in immunocompetent C57BL/6 mouse assessed as body weight loss at 100 mg/kg, po bid administered via gavage for 14 consecutive days measured 3 times per week; assay type: organism-based; conditions: in vivo
[29] = AUC in immunocompetent C57BL/6 mouse implanted with mouse LLC cells at 100 mg/kg, po bid administered via gavage; assay type: ADME, organism-based; conditions: in vivo
[30] = Half life in immunocompetent C57BL/6 mouse implanted with mouse LLC cells at 100 mg/kg, po bid administered via gavage; assay type: ADME, organism-based; conditions: in vivo

For `Nc1ccccc1NC(=O)c1ccc(C(=O)NCCNc2nonc2/C(=N/O)Nc2ccc(F)c(Br)c2)cc1`, the IC50 (Histone deacetylase 1) was 66.5 nM, the IC50 [1] was 69 nM and the IC50 [2] was 17600 nM. For the same molecule, the IC50 (CT26) was 59800 nM, the IC50 (A549) was 16700 nM and the IC50 (HCT-116 [3]) was 5120 nM. For the same molecule, the IC50 (HT-29) was 11700 nM, the Activity (HCT-116 [4]) was “Dose-dependent effect” and the Activity (HCT-116 [5]) was 18.8%. It also gave an Activity (HCT-116 [6]) of 29.9%, an Activity (HCT-116 [7]) of 48.9% and an Activity (HCT-116 [8]) of 47.4%. For the same molecule, the Activity (HCT-116 [9]) was “Tde”, the EC50 [10] was 410 nM and the LC50 (HeLa) was 24770 nM. The selectivity ratio [11] was 60.4, the IC50 (Histone deacetylase 2) was 179 nM and the IC50 (Histone deacetylase 3) was 45 nM. For the same molecule, the IC50 [12] was 70 nM, the half-life at 1 µM [13] was 0.806 h and the “CL(app)” value [14] was 28.7 µL/min/mg. The Cmax [15] was 5760 ng/mL, the Cmax [16] was 12000 ng/mL and the Tmax [17] was 2 h. The Tmax [18] was 4.98 min, the half-life [19] was 3.4 h and the half-life [20] was 1.4 h. For the same molecule, the AUC(0-inf) [21] was 33500 ng·h/mL, the AUC(0-inf) [22] was 3650 ng·h/mL and the bioavailability [23] was 18%. For the same molecule, the inhibition (Mus musculus [24]) was “Active”, the Stability [25] was “Stable” and the solubility [26] was < 10 µg/mL. The inhibition in vivo at 100 mg/kg [27] was 56%, the Activity (Mus musculus [28]) was “Non-Toxic” and the AUC [29] was 60 µM·h. The half-life [30] was 3.4 h.
